This is an account of results in patent publication US9783499B2, “Quinoline derivatives and their applications” (Shenyang Pharmaceutical University, priority 2012, dated 2017).

For assay [1], the system named is human tumor cell lines (such as human lung cancer cells, human gastric cancer cells, etc.). To be noted: cited from earlier work.
For assay [2], the system named is U87MG (Human malignant glioblastoma cell). Description: In vitro anti-tumor cellular activity (MTT), U87MG. Conditions: 72 hours. It counts as cell-based. How it is done: (§1) After pouring the cell dissociation buffer to the centrifugetube, nutrient solution was added to stop digestion. The centrifugetube were centrifuged for 10 min under 800 r/min, the liquid supernatant was removed, 5 mL culture solution was added, after mixing by pipetting the cell, took 10 μL cell suspension to the cell counting plat, and adjusted the cell concentration to 10^4/well. Among the 96 wells, A1 is empty, 100 μL of cell suspension were added to the other wells. The 96 well plates were incubated in the incubator for 24 h. […] The 96-well plates were placed in an incubator and cultivated for 72 hours. (3) The culture media containing the compounds in the 96-well plates was discarded, and the cells were washed with phosphate buffered solution (PBS) twice. Each well was added with 100 μL MTT (tetrazole) (0.5 mg/mL), and then placed in an incubator to incubate for 4 hours, after which MTT solution was discarded and 100 μL dimethyl sulfoxide was added thereto.

The subject of assay [3] is MKN-45 (human gastric carcinoma cell). Briefly: In vitro anti-tumor cellular activity (MTT), MKN-45. It counts as cell-based. Conditions: 72 hours. As for the experimental part: as §1
Assay [4] deals with MDA-MB-231 (human beast cancer cell). Description: In vitro anti-tumor cellular activity (MTT), MDA-MB-231. Type of assay: cell-based. To be noted: 72 hours. How it is done: as §1
Assay [5] relates to SMMC-7721 (hepatoma cell). Description: In vitro anti-tumor cellular activity (MTT), SMMC-7721. It counts as cell-based. Conditions: 72 hours. As for the experimental part:
as §1

Assay [6] deals with H460 (human lung cancer cell). Description: In vitro anti-tumor cellular activity (MTT), H460. Conditions: 72 hours. It counts as cell-based. As for the experimental part: as §1
Assay [7] deals with HT-29 (colon cancer cell). Briefly: In vitro anti-tumor cellular activity (MTT), HT-29. Type of assay: cell-based. Conditions: 72 hours. As for the experimental part: as §1

As to `COc1cc2c(Oc3ccc(NC(=O)C4(C(=O)Nc5ccc(F)cc5)CC4)cc3F)ccnc2cc1OCCCN1CCOCC1` [Foretinib], the “IC50 against a variety of human tumor cell lines” value in assay [1] is reported as “about 0.004 mg/mL”.

`COc1cc2c(Oc3ccc(NC(=O)N/N=C/c4ccccc4)cc3F)ccnc2cc1OCCCN1CCCCC1` [Example 5, (E)-N^1-(3-fluoro-4-(6-methoxy-7-(3-(piperidin-1-yl)propoxy)quinoline-4-yloxy)phenyl)-N^4-(benzaldehyde)semicarbazone]: the “U87MG IC50” value in assay [2] came to 0.19 µg/mL. For the same compound, the “MKN-45 IC50” value in assay [3] came to 0.012 µg/mL. For the same compound, the “MDA-MB-231 IC50” value in assay [4] turned out to be 0.010 µg/mL. For the same compound, in assay [5], the “SMMC-7721 IC50” value came out at 0.16 µg/mL. The “H460 IC50” value in assay [6] is 0.012 µg/mL. Also, the “HT-29 IC50” value in assay [7] is 0.0088 µg/mL.

As to “(E)-N^1-phenyl-N^4-(3-fluoro-4-(6-methoxy-7-(3-(4-methylpiperidin-1-yl)propoxy)quinoline-4-yloxy)benzaldehyde)thiosemicarbazone [Example 63]”, the “U87MG IC50” value in assay [2] came to 1.0 µg/mL. Also, in assay [3], the “MKN-45 IC50” value was found to be 0.73 µg/mL. Also, the “MDA-MB-231 IC50” value in assay [4] stood at 0.14 µg/mL. For the same compound, in assay [5], the “SMMC-7721 IC50” value amounted to 0.64 µg/mL. Moreover, the “H460 IC50” value in assay [6] turned out to be 0.33 µg/mL. In assay [7], the “HT-29 IC50” value is 0.50 µg/mL.

Regarding `COc1cc2c(Oc3ccc(NC(=O)NN=Cc4ccc(F)cc4Cl)cc3F)ccnc2cc1OCCCN1CCOCC1` [Example 14, (E)-N^1-(3-fluoro-4-(6-methoxy-7-(3-(morpholin-4-yl)propoxy)quinoline-4-yloxy)phenyl)-N^4-(2-chloro-4-fluorobenzaldehyde)semicarbazone], the “U87MG IC50” value in assay [2] worked out at 1.4 µg/mL. The “MKN-45 IC50” value in assay [3] amounted to 0.65 µg/mL. Moreover, the “MDA-MB-231 IC50” value in assay [4] is 0.90 µg/mL. Moreover, the “SMMC-7721 IC50” value in assay [5] came out at 1.5 µg/mL. The “H460 IC50” value in assay [6] was 1.2 µg/mL. Also, the “HT-29 IC50” value in assay [7] is 0.81 µg/mL.

With `COc1cc2c(Oc3ccc(C=NNC(=S)Nc4ccc(Cl)c(C(F)(F)F)c4)cc3F)ccnc2cc1OCCCN1CCC(C)CC1` [Example 64, (E)-N^1-[4-chloro-3-(trifluoromethyl)phenyl]-N^4-(3-fluoro-4-(6-methoxy-7-(3-(4-methylpiperidin-1-yl)propoxy)quinoline-4-yloxy)benzaldehyde)thiosemicarbazone], the “U87MG IC50” value in assay [2] was determined as 1.7 µg/mL. Also, in assay [3], the “MKN-45 IC50” value was 0.65 µg/mL. In assay [4], the “MDA-MB-231 IC50” value was 0.98 µg/mL. Also, the “SMMC-7721 IC50” value in assay [5] stood at 1.0 µg/mL. In addition, the “H460 IC50” value in assay [6] stood at 0.56 µg/mL. Moreover, the “HT-29 IC50” value in assay [7] was found to be 0.34 µg/mL.

For `COc1cccc(/C=N/NC(=O)Nc2ccc(Oc3ccnc4cc(OCCCN5CCC(C)CC5)c(OC)cc34)c(F)c2)c1` [Example 7], in assay [2], the “U87MG IC50” value was 0.10 µg/mL. Also, the “MKN-45 IC50” value in assay [3] worked out at 0.0021 µg/mL. The “MDA-MB-231 IC50” value in assay [4] came out at 0.011 µg/mL. The “SMMC-7721 IC50” value in assay [5] is 0.13 µg/mL. The “H460 IC50” value in assay [6] is 0.0012 µg/mL. The “HT-29 IC50” value in assay [7] amounted to 0.0006 µg/mL.

For the compound “(E)-N^1-(3-fluoro-4-(6-methoxy-7-(3-(piperidin-1-yl)propoxy)quinolin-4-yloxy)phenyl)-N^4-(3,4-difluorobenzylidene)thiosemicarbazide [Example 31]”, the “U87MG IC50” value in assay [2] was 0.22 µg/mL. For the same compound, in assay [3], the “MKN-45 IC50” value is 0.11 µg/mL. In assay [4], the “MDA-MB-231 IC50” value was 0.059 µg/mL. The “SMMC-7721 IC50” value in assay [5] was found to be 0.39 µg/mL. In addition, the “H460 IC50” value in assay [6] was determined as 0.041 µg/mL. The “HT-29 IC50” value in assay [7] came to 0.013 µg/mL.
